Legend:
Experiment in all cases: relative viability (nuclei count vs DMSO), 5 days (fraction); higher = more cells survive
[1] = compound: C1=CC=C(C(=C1)C2=CC=C(C=C2)C3=CSC4=C3C(=C(C(=O)N4)C#N)O)O + CC(C)C[C@H](NC(=O)[C@H](Cc1ccccc1)NC(=O)c1cnccn1)B(O)O [Bortezomib] (partner 0.002 µM)
Method in brief: (§1)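 Five library-drug doses in √10 steps were combined with a fixed anchor-drug dose, or a single drug was given alone, by pin tool to lung cancer cell lines in 1536-well plates the day after seeding. Nuclei were stained and counted after 5 days. Relative viability is the nuclei count in treated wells over that in vehicle wells, taken as the median of duplicate plates.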

[2] = compound: CC1=CN2C(=O)C=C(N=C2C(=C1)C(C)NC3=CC=CC=C3)N4CCOCC4 [TGX 221] + CC(C)C[C@H](NC(=O)[C@H](Cc1ccccc1)NC(=O)c1cnccn1)B(O)O [Bortezomib] (partner 0.002 µM)
Method in brief: as §1

[3] = compound: CC1=CN2C(=O)C=C(N=C2C(=C1)C(C)NC3=CC=CC=C3)N4CCOCC4 [TGX 221] + C[C@@H](Oc1cc(-c2cnn(C3CCNCC3)c2)cnc1N)c1c(Cl)ccc(F)c1Cl [Crizotinib] (partner 1 µM)
Method in brief: as §1

[4] = compound: CC1=CN2C(=O)C=C(N=C2C(=C1)C(C)NC3=CC=CC=C3)N4CCOCC4 [TGX 221] + Cc1nc(Nc2ncc(C(=O)Nc3c(C)cccc3Cl)s2)cc(N2CCN(CCO)CC2)n1 [Dasatinib] (partner 0.075 µM)
Method in brief: as §1

Row | Cell Line | relative viability ([1]; first compound 0.08 µM) | relative viability ([1]; first compound 0.253 µM) | relative viability ([1]; first compound 0.8 µM) | relative viability ([1]; first compound 2.53 µM) | relative viability ([1]; first compound 8 µM) | relative viability ([2]; first compound 0.08 µM) | relative viability ([2]; first compound 0.253 µM) | relative viability ([2]; first compound 0.8 µM) | relative viability ([2]; first compound 2.53 µM) | relative viability ([2]; first compound 8 µM) | relative viability ([3]; first compound 0.08 µM) | relative viability ([3]; first compound 0.253 µM) | relative viability ([3]; first compound 0.8 µM) | relative viability ([3]; first compound 2.53 µM) | relative viability ([3]; first compound 8 µM) | relative viability ([4]; first compound 0.08 µM) | relative viability ([4]; first compound 0.253 µM) | relative viability ([4]; first compound 0.8 µM) | relative viability ([4]; first compound 2.53 µM) | relative viability ([4]; first compound 8 µM)
1 | NCI-H1355 | 0.981 | 1.31 | 1.25 | 1.12 | 1.19 | 1.18 | 1.16 | 1.26 | 1.12 | 1.08 | 1.02 | 1.07 | 1.01 | 0.913 | 0.887 | 0.688 | 0.688 | 0.721 | 0.688 | 0.632
2 | NCI-H1437 | 0.539 | 0.665 | 0.603 | 0.406 | 0.322 | 0.535 | 0.53 | 0.522 | 0.414 | 0.486 | 0.931 | 0.908 | 0.876 | 0.861 | 0.819 | 0.408 | 0.427 | 0.517 | 0.323 | 0.356
3 | NCI-H1563 | 0.543 | 0.953 | 0.909 | 0.785 | 0.759 | 0.925 | 0.783 | 0.795 | 0.719 | 0.687 | 0.846 | 0.832 | 0.766 | 0.736 | 0.666 | 0.427 | 0.457 | 0.434 | 0.46 | 0.428
